Eleven compounds from US20170283425A1, “COMPOUNDS FOR THE INHIBITION OF CYCLOPHILINS AND USES THEREOF” (Merck Patent GmbH, priority 2016, published 2017) can be followed below.

Structures are written as SMILES.

By IC50 is commonly meant the midpoint of a concentration-inhibition curve. A high value points to a need for much substance.

Assay [1] concerns the target T1, CypD (Homo sapiens, UniProt P30405). Briefly: SPR binding. The conditions noted are these: SPR surface; read-out: SPR CypD (KDSS). For orientation: SPR reads the build-up and loss of mass on a sensor chip optically.
Excerpt: Binding was confirmed on an SPR surface using a protocol adapted from Mori et al., J. Biomolecular Screening, 2009 p 419.
Assay [2] deals with T1, CypD. Briefly: CypD binding assay (competition fluorescence polarisation with fluorescein-labelled cyclosporin). Here is the method:
The binding capacity of the compounds were measured using a competition Fluorescence-Polarisation based assay with fluorescine labelled cyclosporin. The protocol used was adapted from Hausch et al, Med Chem lett 2010, p 536.
(Fluorescence polarisation rises when a labelled molecule tumbles more slowly, as on binding a larger partner.)

The target in assay [3] is T1, CypD. Put plainly: CypD enzymatic assay (PPase-chymotrypsin coupled, suc-AAPF-p-NA substrate). The conditions noted are these: colorimetric. It is filed as biochemical. Here is the method:
The peptidyl-proline isomerase activity (PPase) was determined by using a PPase-chymotrypsin coupled assay with suc-AAPF-p-NA as substrated and colorimeric detection adapted from Liu et al., AnalBioChem, 2006 p 100.

T1 sequence (P30405 30-207): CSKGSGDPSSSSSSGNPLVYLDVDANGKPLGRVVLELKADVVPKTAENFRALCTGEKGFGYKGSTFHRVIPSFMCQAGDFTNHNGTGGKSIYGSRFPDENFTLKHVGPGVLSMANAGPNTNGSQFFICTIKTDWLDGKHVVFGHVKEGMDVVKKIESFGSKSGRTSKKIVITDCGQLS

On to `O=C(NCC(=O)N1CCCC1)NCc1ccc2c(c1)[C@H]1C[C@@H](N2)[C@H](O)CO1` [Compound 12, 1-((1R,9R,10S)-10-Hydroxy-12-oxa-8-aza-tricyclo[7.3.1.02,7]trideca-2(7),3,5-trien-4-ylmethyl)-3-(2-oxo-2-pyrrolidin-1-yl-ethyl)-urea], for which the Kd on CypD [1] lay within 1 to 100 µM. For the same compound, the IC50 on CypD [2] and against CypD [3] was 1 to 100 µM in each case.
Take `CCN1Cc2cc(CCC(=O)NCC(=O)N3CCC[C@@H]3C(F)(F)F)ccc2NCCC1=O` [Compound 30, 3-(5-Ethyl-4-oxo-1,2,3,4,5,6-hexahydro-benzo[b][1,5]diazocin-8-yl)-N-[2-oxo-2-((R)-2-trifluoromethyl-pyrrolidin-1-yl)-ethyl]-propionamide]: the Kd on CypD [1] is 1 to 100 µM. At CypD [2], this compound showed a half-maximal inhibitory concentration (IC50) of 1 to 100 µM.
For the compound `CCN1Cc2cc(CCC(=O)NCC(=O)N(C)[C@H](C)c3ccccc3)ccc2NCCC1=O` [Compound 31, (R)-3-(5-ethyl-4-oxo-1,2,3,4,5,6-hexahydrobenzo[b][1,5]diazocin-8-yl)-N-(2-(methyl(1-phenylethyl)amino)-2-oxoethyl)propanamide], at CypD [1], the Kd fell in the range of 1 to 100 µM. The half-maximal inhibitory concentration (IC50) on CypD [2] was in the range of 1 to 100 µM.
In the case of `CCN1Cc2cc(CCC(=O)N[C@H](C(=O)N3CCCC3)c3ccccc3)ccc2NCCC1=O` [Compound 32, 3-(5-Ethyl-4-oxo-1,2,3,4,5,6-hexahydro-benzo[b][1,5]diazocin-8-yl)-N—((S)-2-oxo-1-phenyl-2-pyrrolidin-1-yl-ethyl)-propionamide], the Kd on CypD [1] fell in the range of 1 to 100 µM. In addition, the half-maximal inhibitory concentration (IC50) on CypD [2] was in the range of 1 to 100 µM.
Regarding `CCN1Cc2cc(CCC(=O)NCC(=O)N3CCC[C@@H]3CO)ccc2NCCC1=O` [Compound 33, 3-(5-Ethyl-4-oxo-1,2,3,4,5,6-hexahydro-benzo[b][1,5]diazocin-8-yl)-N-[2-(®-2-hydroxymethyl-pyrrolidin-1-yl)-2-oxo-ethyl]-propionamide], at CypD [1], the Kd lay in the range of 1 to 100 µM. At CypD [2], the IC50 was 1 to 100 µM.
For `CCN1Cc2cc(CCC(=O)NCC(=O)N3CCC[C@H]3CO)ccc2NCCC1=O` [Compound 34, 3-(5-Ethyl-4-oxo-1,2,3,4,5,6-hexahydro-benzo[b][1,5]diazocin-8-yl)-N-[2-((S)-2-hydroxymethyl-pyrrolidin-1-yl)-2-oxo-ethyl]-propionamide], the Kd on CypD [1] lay within 1 to 100 µM. The IC50 on CypD [2] was in the range of 1 to 100 µM.
For `CCN1Cc2cc(CNC(=O)NCC(=O)N(C)[C@H](C)c3ccccc3)ccc2NCCC1=O` [Compound 35, (R)-2-(3-((5-ethyl-4-oxo-1,2,3,4,5,6-hexahydrobenzo[b][1,5]diazocin-8-yl)methyl)ureido)-N-methyl-N-(1-phenylethyl)acetamide], the Kd at CypD [1] was 1 to 100 µM. This compound displayed an IC50 at CypD [2] of 1 to 100 µM.
As for `CCN1Cc2cc(CNC(=O)NCC(=O)N3CCCC3c3ccccn3)ccc2NCCC1=O` (centres unmarked) [Compound 36, 1-(5-Ethyl-4-oxo-1,2,3,4,5,6-hexahydro-benzo[b][1,5]diazocin-8-ylmethyl)-3-[2-oxo-2-(2-pyridin-2-yl-pyrrolidin-1-yl)-ethyl]-urea], the Kd at CypD [1] is 1 to 100 µM. The compound further gave an IC50 at CypD [2] of 1 to 100 µM.
In the case of `O=C(NCC(=O)N1CCC[C@@H]1C(F)(F)F)NCc1ccc2c(c1)[C@@H]1C[C@H](N2)[C@H](O)CO1` [Compound 37, 1-(((2S,3S,6S)-3-hydroxy-2,3,4,6-tetrahydro-1H-2,6-methanobenzo[c][1,5]oxazocin-8-yl)methyl)-3-(2-oxo-2-((R)-2-(trifluoromethyl)pyrrolidin-1-yl)ethyl)urea], the Kd at CypD [1] lay within 1 to 100 µM. Further, the IC50 at CypD [2] fell in the range of 1 to 100 µM.
Consider `C[C@H](c1ccccc1)N(C)C(=O)CNC(=O)NCc1ccc2c(c1)[C@H]1C[C@@H](N2)[C@H](O)CO1` [Compound 38, 2-(3-(((2R,3S,6R)-3-hydroxy-2,3,4,6-tetrahydro-1H-2,6-methanobenzo[c][1,5]oxazocin-8-yl)methyl)ureido)-N-methyl-N—((R)-1-phenylethyl)acetamide], for which, at CypD [1], the Kd fell in the range of 1 to 100 µM. On CypD [2], this compound gave a concentration for half-maximal inhibition (IC50) of 1 to 100 µM.
For the compound `CCn1nnc(CNC(=O)NCc2ccc3c(c2)[C@H]2C[C@@H](N3)[C@H](O)CO2)n1` [Compound 39, 1-((2-ethyl-2H-tetrazol-5-yl)methyl)-3-(((2R,3S,6R)-3-hydroxy-2,3,4,6-tetrahydro-1H-2,6-methanobenzo[c][1,5]oxazocin-8-yl)methyl)urea], the Kd at CypD [1] lay in the range of 1 to 100 µM. This compound also returned an IC50 on CypD [2] of 1 to 100 µM.
